Source: patent US5162317A, “Pyridinium salt and pharmacological composition containing the same” (Esai Co., Ltd., priority 1988, dated 1992)

target: T1, H^+ --K^+ ATPase (Sus scrofa, UniProt P19156); experiment: Inhibition effect on H^+ --K^+ ATPase activity; format: biochemical; settings: H^+ --K^+ ATPase from fresh swine gastric mucosa, 10 μg protein/ml, pH 7.40, 37° C., 30 minutes incubation; compound dissolved in methanol
T1 construct: prepared from the fundus ventriculi gland of fresh swine gastric mucosa; from tissue; host or cells: swine gastric mucosa, fundus ventriculi gland (modified method of Saccomani et al. 1977)
T1 sequence (P19156 2-1034 limits assumed): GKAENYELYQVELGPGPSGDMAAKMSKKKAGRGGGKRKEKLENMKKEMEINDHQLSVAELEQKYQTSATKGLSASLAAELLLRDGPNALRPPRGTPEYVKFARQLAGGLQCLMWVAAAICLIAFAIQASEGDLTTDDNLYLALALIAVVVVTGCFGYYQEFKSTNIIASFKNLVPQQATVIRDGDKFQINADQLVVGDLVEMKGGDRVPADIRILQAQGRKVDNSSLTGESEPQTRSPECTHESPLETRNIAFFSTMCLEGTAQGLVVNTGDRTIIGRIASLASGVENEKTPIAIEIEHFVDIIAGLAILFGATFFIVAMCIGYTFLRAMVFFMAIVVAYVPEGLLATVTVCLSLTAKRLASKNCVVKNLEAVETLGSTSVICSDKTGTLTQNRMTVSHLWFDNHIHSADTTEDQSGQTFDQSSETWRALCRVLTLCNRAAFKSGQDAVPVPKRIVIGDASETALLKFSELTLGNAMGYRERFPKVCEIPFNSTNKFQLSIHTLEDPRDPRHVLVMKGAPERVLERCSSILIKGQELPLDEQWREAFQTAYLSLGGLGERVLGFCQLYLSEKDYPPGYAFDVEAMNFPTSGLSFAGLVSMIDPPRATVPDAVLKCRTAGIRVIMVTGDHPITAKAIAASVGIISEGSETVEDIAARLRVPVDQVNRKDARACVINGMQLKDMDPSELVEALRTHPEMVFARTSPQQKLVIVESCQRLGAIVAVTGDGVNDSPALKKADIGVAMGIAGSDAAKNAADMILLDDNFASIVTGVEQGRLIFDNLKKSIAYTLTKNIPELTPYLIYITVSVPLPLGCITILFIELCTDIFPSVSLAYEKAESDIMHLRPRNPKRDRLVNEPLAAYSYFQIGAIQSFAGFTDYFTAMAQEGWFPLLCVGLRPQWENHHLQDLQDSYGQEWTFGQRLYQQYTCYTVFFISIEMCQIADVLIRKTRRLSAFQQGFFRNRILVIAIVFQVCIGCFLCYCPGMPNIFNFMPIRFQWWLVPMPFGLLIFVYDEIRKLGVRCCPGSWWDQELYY
T1 sequence (P18434 whole entry partner): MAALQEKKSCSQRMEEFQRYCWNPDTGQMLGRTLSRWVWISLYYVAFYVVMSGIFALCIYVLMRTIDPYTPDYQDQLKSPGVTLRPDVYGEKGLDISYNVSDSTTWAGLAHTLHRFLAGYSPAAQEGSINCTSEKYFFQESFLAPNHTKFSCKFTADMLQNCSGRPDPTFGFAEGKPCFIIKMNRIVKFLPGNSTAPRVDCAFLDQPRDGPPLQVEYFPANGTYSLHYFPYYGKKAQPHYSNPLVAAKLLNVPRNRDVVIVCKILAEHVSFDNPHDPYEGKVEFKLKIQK
Method: Inhibition effect on H^+ --K^+ ATPase activity
(1) Preparation of H^+ --K+ATPase
The enzyme H^+ --K+ATPase was prepared from the fundus ventriculi gland of fresh swine gastric mucosa by a modified method of Saccomani et al. (Biochem. and Biophys. Acta., 464, 313 (1977)).
(2) Determination of H^+ --K^+ ATPase activity
(§1) Various concentrations of the compounds of the present invention were incubated together with 10 μg protein/ml of the H^+ --K^+ ATPase in a 40 mM Tris HCl buffer (pH 7.40) at 37° C. for 30 minutes. Then 15 mM KCl was added thereto. Ten minutes thereafter, an ATPase reaction between 3 mM of MgCl2 and ATP was started. Ten minutes thereafter, the liberated inorganic phosphoric acid was determined according to Yoda and Hokin's method (cf. Biochem. Biophys. Res., Com., 40, 880 (1970)).
The test compound was 3-(3-methoxy)propoxy-4-methyl-5H-pyrido[1'.2':4.5][1.2.4.]thiazino[2.3-a]- benzimidazol-13-ium tetrafluoroborate (the compound of Example 1). This compound was dissolved in methanol prior to the test.
The inhibition effect (%) was calculated by dividing the difference between the data of the test group and that of the control group, to which solvent was added exclusively, by the data of the control group.
(1) Preparation of H^+ --K^+ ATPase
The enzyme H^+ --K^+ ATPase was prepared from the fundus ventriculi gland of fresh swine gastric mucosa by a modified method of Saccomani et al. (Biochem. and Biophys. Acta., 464, 313 (1977)).
as §1, with “H+--K^+” for “H^+ --K^+”, “MgCl” for “MgCl2”
The test compound was 2-[2-(ethyldithiomethyl)4-(3-methoxy)propoxy-3-methyl-1-pyridinio)benzimidazolide (the compound of Example 1). […]

IC50	Compound
0.44 µM	COCCCOc1cc[n+]2c(c1C)CSn1c-2nc2ccccc21 [Example 1, 3-(3-Methoxy)propoxy-4-methyl-5H-pyrido[1'.2':4.5][1.2.4]thiaziano[2.3-a]benzimidazol-13-ium tetrafluoroborate]
> 10 µM	CCSSCc1c(C)c(OCCCOC)cc[n+]1-c1nc2ccccc2[n-]1 [Example 12, 2-[2-(Ethyldithiomethyl)-4-(3-methoxy)propoxy-3-methyl-1pyridinio]benzimidazolide]
11 µM	COc1ccc2[nH]c([S+]([O-])Cc3ncc(C)c(OC)c3C)nc2c1 (stereo not drawn) [Omeprazole, reference compound]
